{
  "source": "paper PMC6927504",
  "about": "“Screening of House Dust from Chinese Homes for Chemicals with Liver X Receptors Binding Activities and Characterization of Atherosclerotic Activity Using an in Vitro Macrophage Cell Line and ApoE^−/− Mice” (Environmental Health Perspectives, 2019)",
  "key": {"ApoE−/− mice [1]": {"system": "ApoE−/− mice", "test": "Immunofluorescence staining of aortic root sections (MOMA-2, SMCα-Actin) in ApoE−/− mice", "assay_type": "in vivo, mouse", "conditions": "13 weeks", "description": "(§1) All experiments related to animals were approved by the institutional animal care and use committee of Peking University and followed the guidelines for animal experiments of the university as well as for experimental animals in China. The biological effect size of the animal experiments was based on the previous paper ([Negro Silva et al. 2017]). C57BL/6 (12 weeks old) and ApoE^−/− mice (12 weeks old) were obtained from the Beijing Vital River Laboratory Animal Technology Company. Mice used in the experiments were acclimated to the housing unit 2 weeks before they were used for experiments, and they were randomly assigned to control or TPHP treatment groups. Five animals were housed to a cage, and mice were acclimatized to the controlled environment (temperature: 22±2°C; relative humidity: 40–60%; artificial lighting: 12 h:12 h light/dark). Mice received diet and drinking water ad libitum. Body weight (BW) was measured every week during the dosing period. Forty-five C57BL/6 mice and 27 ApoE^−/− mice were used in this study. Animal protocol 1: Male C57BL/6 mice (five mice per group) were fed a basic diet (Laboratory Animal Center of the Academy of Military Medical Sciences, China). On Day 0, mice were stimulated with paraffin oil by intraperitoneal injection. From Day 1 to Day 7, mice were exposed to corn oil (control) or TPHP (dissolved in corn oil) at 40 or 200mg/kg BW by daily oral gavage. The volume of the corn oil or TPHP in corn oil administered was 5mL/kg BW. On Day 8, after the mice were anesthetized by sodium pentobarbital via intramuscular injection, peritoneal macrophages were harvested from peritoneal lavage with 4mL pre-warmed DMEM-F12 (containing 10% FBS) using a 25-gauge needle; 5–10 min later, 3–3.5mL peritoneal fluid was collected, and the cells were isolated by centrifuge at 1,000 rpm for 5 min. […] Considering that this study assessed the effects of short-term exposure to TPHP, whereas humans are exposed to TPHP over a lifelong period, the present study used exposure doses that were higher than that of human exposure from house dust. […]"}, "ApoE−/− mice [2]": {"system": "ApoE−/− mice", "test": "Atherosclerotic lesion analysis (Oil Red O) in ApoE−/− mouse model", "assay_type": "in vivo", "conditions": "13 weeks, p<0.01; for Area of the atherosclerotic lesion (en face lipid staining), higher than control: high-fat diet", "description": "as §1"}, "[3]": {"system": "human primary preadipocytes", "set-up": "method as in Tung et al. 2017", "conditions": "ref Tung et al. 2017; cited from earlier work"}},
  "data": [
    {"smiles": "O=P(Oc1ccccc1)(Oc1ccccc1)Oc1ccccc1", "note": "[TPHP, triphenyl phosphate]", "values": [
      {"measurement": "Macrophage content (MOMA-2) in aortic root lesions, higher than control", "setting": "ApoE−/− mice [1]; 10 mg/kg BW, p<0.05", "result": 1.9, "unit": "fold"},
      {"measurement": "Macrophage content (MOMA-2) in aortic root lesions, higher than control", "setting": "ApoE−/− mice [1]; 40 mg/kg BW, p<0.01", "result": 3.1, "unit": "fold"},
      {"measurement": "Abundance of SMCs (SMCα-Actin) in the aortic roots versus control", "setting": "ApoE−/− mice [1]; 10 and 40 mg/kg BW", "result": "a significant difference was not found"},
      {"measurement": "Atherosclerotic lesion area around the aortic root versus control", "setting": "ApoE−/− mice [2]; 10 and 40 mg/kg BW", "result": "significantly higher lesion area"},
      {"measurement": "Area of the atherosclerotic lesion (en face lipid staining), higher than control", "setting": "ApoE−/− mice [2]; 10 mg/kg BW oral gavage", "result": 41, "unit": "%"},
      {"measurement": "Area of the atherosclerotic lesion (en face lipid staining), higher than control", "setting": "ApoE−/− mice [2]; 40 mg/kg BW oral gavage", "result": 83, "unit": "%"},
      {"measurement": "Adipogenesis", "setting": "[3]", "result": "promote adipogenesis"}
    ]}
  ]
}
